The values that follow come from patent US9701670B2, “Pyrazolyl-ureas as kinase inhibitors” (RESPIVERT LIMITED, priority 2013, dated 2017).

Series [1] relates to Differentiated U937 cells. The experiment in a line: (l) Cell viability: MTT assay. It counts as cell-based, human. The settings on record: 1 μg/mL. A digest of the protocol:
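Differentiated U937 cells were exposed to compound at 1 or 10 μg/mL either 4 h in 5% FCS RPMI1640 or 24 h in 10% FCS RPMI1640, then given MTT for 1 h, DMSO-solubilised and read at 550 nm. Percent viability loss versus 0.5% DMSO vehicle; apparent gains appear negative.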
Background: Formazan colour is commonly taken as a measure of viable cells.

Another series concerns Balb/c mice. The experiment in a line: (A) LPS-induced neutrophil accumulation in mice. The note with it: mice, test substance at 0.2 mg/mL, dosed 8 hr pre-LPS challenge; for Neutrophil numbers in BAL: +/−SEM, N = 8. It counts as in vivo, mouse. The protocol:
[…] At T=0, mice are placed into an exposure chamber and exposed to LPS (7.0 mL, 0.5 mg/mL solution in PBS) for 30 min). After a further 8 hr the animals are anesthetized, their tracheas cannulated and BALF extracted by infusing and then withdrawing from their lungs 1.0 mL of PBS via the tracheal catheter. Total and differential white cell counts in the BALF samples are measured using a Neubaur haemocytometer. Cytospin smears of the BALF samples are prepared by centrifugation at 200 rpm for 5 min at RT and stained using a DiffQuik stain system (Dade Behring). Cells are counted using oil immersion microscopy. Data for neutrophil numbers in BAL are shown as mean±S.E.M. (standard error of the mean). The percentage inhibition of neutrophil accumulation is calculated for each treatment relative to vehicle treatment.

The next series relates to HCK. The experiment in a line: Enzyme binding assay (Kinomescan). The protocol:
These assays were conducted by DiscoverX (formerly Ambit; San Diego, Calif.). The percentage inhibition produced by incubation with a test compound is calculated relative to the non-inhibited control.

Series [2] concerns β-catenin in d-U937 cells. The experiment in a line: (m) Accumulation of β catenin in d-U937 cells. The class given is cell-based, human. The essentials:
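PMA-differentiated U937 macrophage-type cells (100 ng/mL, 48–72 hr) were exposed to test compound or vehicle for 18 hr, then fixed. β-catenin was measured by cell ELISA (HRP/TMB, OD450-655) and normalised to crystal violet OD595. Signals below 15% of the standard control were designated "-ve".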

Series [3] has as its target T1, GSK 3α (Homo sapiens (Human), UniProt P49840). The experiment in a line: GSK 3α enzyme inhibition (FRET, Z-LYTE), Method 1. The note with it: Method 1 (Table 4a1); read-out: IC50 Values for Enzyme Inhibition GSK3α. The class given is biochemical. The protocol:
(§1) The enzyme inhibitory activities of compounds disclosed herein are determined by FRET using synthetic peptides labelled with both donor and acceptor fluorophores (Z-LYTE, Invitrogen Ltd., Paisley, UK).
(§2) The inhibitory activities of compounds of the invention against the GSK 3α enzyme isoform (Invitrogen), are evaluated by determining the level of activation/phosphorylation of the target peptide. The GSK3-α protein (500 ng/mL, 2.5 μL) is mixed with the test compound (2.5 μL at either 4 μg/mL, 0.4 μg/mL, 0.04 μg/mL, or 0.004 μg/mL) for 2 hr at RT. The FRET peptide (8 μM, 2.5 μL), which is a phosphorylation target for GSK3α, and ATP (40 μM, 2.5 μL) are then added to the enzyme/compound mixture and the resulting mixture incubated for 1 hr. Development reagent (protease, 5 μL) is added for 1 hr prior to detection in a fluorescence microplate reader (Varioskan® Flash, ThermoFisher Scientific).
(§3) In all cases, the site-specific protease cleaves non-phosphorylated peptide only and eliminates the FRET signal. Phosphorylation levels of each reaction are calculated using the ratio of coumarin emission (donor) over fluorescein emission (acceptor), for which high ratios indicate high phosphorylation and low ratios indicate low phosphorylation levels.

In series [4] the target is T2, p38 MAPKα isoform (MAPK14) (Homo sapiens (Human), UniProt Q16539). The experiment in a line: p38 MAPKα enzyme inhibition (FRET, Z-LYTE), Method 1. The class given is biochemical. The settings on record: Method 1 (Table 4a1).
T2 sequence (Q16539 whole entry, canonical isoform): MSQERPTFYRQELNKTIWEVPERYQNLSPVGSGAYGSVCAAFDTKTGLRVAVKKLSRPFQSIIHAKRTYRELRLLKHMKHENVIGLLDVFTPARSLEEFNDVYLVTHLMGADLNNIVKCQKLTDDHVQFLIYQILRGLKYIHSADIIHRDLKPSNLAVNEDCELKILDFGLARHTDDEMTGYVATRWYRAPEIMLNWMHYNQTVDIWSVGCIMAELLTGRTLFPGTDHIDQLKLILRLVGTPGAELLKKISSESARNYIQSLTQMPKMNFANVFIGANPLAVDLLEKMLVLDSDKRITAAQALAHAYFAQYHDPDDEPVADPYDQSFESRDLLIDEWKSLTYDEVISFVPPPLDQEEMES
Series [5] deals with T2, p38 MAPKα isoform (MAPK14). The experiment in a line: p38 MAPKα enzyme inhibition (FRET, Z-LYTE), Method 2. It counts as biochemical. The settings on record: Method 2, different laboratory (Table 4a2).
For a further series, the system named is HRV16. The experiment in a line: (j) HRV16 induced CPE in MRC5 cells. The settings on record: HRV-16. It counts as cell-based. The protocol:
The supernatants are aspirated, and then fresh media added followed by incubation for 4 days. Where appropriate, cells are pre-incubated with compound or DMSO for 2 hr, and the compounds and DMSO added again after washout of the virus.
After washing, 1% SDS in distilled water (100 μL) is added to each well, and the plates are shaken lightly for 1-2 hr prior to reading the absorbance at 660 nm. The percentage inhibition for each well is calculated. The IC50 value is calculated from the concentration-response curve generated by the serial dilutions of the test compounds.

A further series concerns the target Syk (Homo sapiens (Human), UniProt P43405). The experiment in a line: Syk enzyme inhibition (FRET, Z-LYTE). The settings on record: different laboratory (Table 4a2). It counts as biochemical. The protocol:
as §1
The relevant enzyme (3000 ng/mL or 2000 ng/mL respectively, 2.5 μL) is incubated with the test compound (either 4 μg/mL, 0.4 μg/mL, 0.04 μg/mL, or 0.004 μg/mL, 2.5 μL each) for 2 hr at RT. The FRET peptides (8 μM, 2.5 μL), and appropriate ATP solutions (2.5 μL, 800 μM for c-Src, and 60 μM ATP for Syk) are then added to the enzymes/compound mixtures and incubated for 1 hr. Development reagent (protease, 5 μL) is added for 1 hr prior to detection in a fluorescence microplate reader (Varioskan® Flash, ThermoFisher Scientific).
as §3

The nature of series [6]: Hepatic microsomal stability. It counts as in vitro ADME. The settings on record: scaled from intrinsic clearance, mean of two experiments. The protocol: (§4) • Microsomal stability assays were performed with incubations of test compounds at 0.1 μM (n=2, final DMSO concentration 0.25%), and carried out using pooled human, dog and rat hepatic microsomes from Xenotech (Lots 1210153, 0810143 and 1110042, respectively) at 0.25 mg protein/mL in the presence of co-factor, NADPH. The incubations were performed at 37° C. with 100 μL aliquots taken from the incubation, at 0, 2, 5, 10 and 20 minutes and reactions terminated by addition of 100 μL of acetonitrile containing carbamazepine as analytical internal standard. […] Half-life values were calculated from the relationship T1/2(min)=−0.693/λ • where λ was the slope of the Ln concentration vs time curve. • The in vitro intrinsic clearance, CIint (mL/min/kg), was calculated and scaled to hepatic extraction ratios using the following scaling parameters and formulae.
(§5) Formulae CIint(tissue clearance) mL/min/kg=[0.693/t½(min)]×[1/microsomal protein concentration mg/mL]×[mg microsomes/g liver]×[g liver/kg body weight] […] The incubations were performed at 37° C. with 100 μL samples taken from the incubation, at 0, 10, 20, 45 and 90 minutes, and reactions terminated by addition of 100 μL of acetonitrile containing carbamazepine as analytical internal standard. […] Half-life values were calculated from the relationship T1/2(min)=−0.693/λ • where λ was the slope of the Ln concentration vs time curve. • Standard compounds testosterone, midazolam and 4-methylumbelliferone are included in the assay design.

Series [7] can be described thus: Hepatic microsomal stability. It counts as in vitro ADME, human. The protocol: as §4, §5
Series [8] can be described thus: Cryopreserved hepatocyte stability. The class given is in vitro ADME. The settings on record: scaled from intrinsic clearance, mean of two experiments. The protocol: as §5
CIint(Tissue Clearance) mL/min/kg=[0.693/t½(min)]×[1/hepatocyte concentration (million cells/mL)]×[million cells/g liver]×[g liver/kg body weight] CIint(Hepatic clearance) mL/min/kg=hepatic blood flow×CIint/(hepatic blood flow+CIint) Hepatic extraction ratio (Eh)=CIint(Hepatic clearance) mL/min/kg/hepatic blood flow (mL/min/kg)

Series [9] addresses T1, GSK 3α. The experiment in a line: GSK 3α enzyme inhibition (FRET, Z-LYTE), Method 2. The class given is biochemical. The note with it: Method 2, different laboratory (Table 4a2); read-out: IC50 Values for Enzyme Inhibition GSK3α. The protocol:
as §1, §2, §3

T1 sequence (P49840 whole entry): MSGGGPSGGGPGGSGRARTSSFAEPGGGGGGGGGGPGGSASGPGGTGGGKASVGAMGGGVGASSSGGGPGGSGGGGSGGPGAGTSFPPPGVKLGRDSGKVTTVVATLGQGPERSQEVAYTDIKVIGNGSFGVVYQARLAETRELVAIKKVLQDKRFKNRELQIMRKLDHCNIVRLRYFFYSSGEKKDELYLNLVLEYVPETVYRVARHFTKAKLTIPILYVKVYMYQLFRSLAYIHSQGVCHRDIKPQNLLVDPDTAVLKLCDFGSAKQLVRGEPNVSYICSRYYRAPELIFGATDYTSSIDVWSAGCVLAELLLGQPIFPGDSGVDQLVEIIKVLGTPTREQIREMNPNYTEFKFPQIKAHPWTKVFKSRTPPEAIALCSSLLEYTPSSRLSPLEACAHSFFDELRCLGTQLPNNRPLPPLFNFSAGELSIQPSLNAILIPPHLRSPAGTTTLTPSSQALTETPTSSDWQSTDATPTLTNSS

`COCC(=O)Nc1cc(Oc2ccc(NC(=O)Nc3cc(C(C)(C)C)nn3-c3ccc(C)cc3)c3ccccc23)ccn1` [Reference Compound, N-(4-(4-(3-(3-tert-butyl-1-p-tolyl-1H-pyrazol-5-yl)ureido)naphthalen-1-yloxy)pyridin-2-yl)-2-methoxyacetamide, reference compound]: in series [1], the “Cell viability at time point in d-U937 cells 4 h” value was “−ve (−ve and +ve indicate that the value is below and above respectively, the no significant effect threshold, defined as 30% inhibition at 1 μg/mL at the time point indicated.)”; the “Cell viability at time point in d-U937 cells 24 h” value was “+ve (−ve and +ve indicate that the value is below and above respectively, the no significant effect threshold, defined as 30% inhibition at 1 μg/mL at the time point indicated.)”. Moreover, in the series with Balb/c mice, the “% inhibition of neutrophil numbers in BAL” value came out at 60% and the “Neutrophil numbers in BAL” value was 5.6 ± 0.86 ×10^5/mL. For the same molecule, in the series on HCK, the “% Inhibition of kinase binding at 500 nM HCK” value is 100%. Further, the “% β-catenin induction” value in series [2] (1 μg/mL test compound) is reported as 208%.

Consider `COc1cc(Nc2nccc(Oc3ccc(NC(=O)Nc4cc(C(C)C)nn4-c4ccc(C)cc4)c4ccccc34)n2)cc(C(=O)NCCO)c1` [Example 63, N-(2-hydroxyethyl)-3-((4-((4-(3-(3-isopropyl-1-(p-tolyl)-1H-pyrazol-5-yl)ureido)naphthalen-1-yl)oxy)pyrimidin-2-yl)amino)-5-methoxybenzamide], for which, in series [1], the “Cell viability at time point in d-U937 cells 4 h” value is “−ve (−ve and +ve indicate that the value is below and above respectively, the no significant effect threshold, defined as 30% inhibition at 1 μg/mL at the time point indicated.)”. Moreover, the “Cell viability at time point in d-U937 cells 24 h” value in series [1] is “−ve (−ve and +ve indicate that the value is below and above respectively, the no significant effect threshold, defined as 30% inhibition at 1 μg/mL at the time point indicated.)”. The figures for the IC50 (on GSK 3α [3]; in series [4]) were 13000 nM and 45 nM, respectively.

For the molecule `COc1ccc(-n2nc(C(C)C)cc2NC(=O)Nc2ccc(Oc3ccnc(Nc4cc(OC)cc(C(=O)NCCN5CCOCC5)c4)n3)c3ccccc23)cc1` [Example 53, 3-((4-((4-(3-(3-isopropyl-1-(4-methoxyphenyl)-1H-pyrazol-5-yl)ureido)naphthalen-1-yl)oxy)pyrimidin-2-yl)amino)-5-methoxy-N-(2-morpholinoethyl)benzamide], the “Cell viability at time point in d-U937 cells 4 h” value in series [1] was “−ve (−ve and +ve indicate that the value is below and above respectively, the no significant effect threshold, defined as 30% inhibition at 1 μg/mL at the time point indicated.)”. In addition, in series [1], the “Cell viability at time point in d-U937 cells 24 h” value is “−ve (−ve and +ve indicate that the value is below and above respectively, the no significant effect threshold, defined as 30% inhibition at 1 μg/mL at the time point indicated.)”. Further, the IC50 in series [5] was found to be 37 nM; with HRV16 it was 2 nM; in series [4], 2 nM.

As to `COc1cc(Nc2nccc(Oc3ccc(NC(=O)Nc4cc(C(F)(F)C(F)(F)F)nn4-c4ccc(C)cc4)c4ccccc34)n2)cc(C(=O)NCCN2CCOCC2)c1` [Example 9, 3-Methoxy-N-(2-morpholinoethyl)-5-((4-((4-(3-(3-(perfluoroethyl)-1-(p-tolyl)-1H-pyrazol-5-yl)ureido)naphthalen-1-yl)oxy)pyrimidin-2-yl)amino)benzamide], in [1], the “Cell viability at time point in d-U937 cells 4 h” value is “−ve (−ve and +ve indicate that the value is below and above respectively, the no significant effect threshold, defined as 30% inhibition at 1 μg/mL at the time point indicated.)”; the “Cell viability at time point in d-U937 cells 24 h” value was “−ve (−ve and +ve indicate that the value is below and above respectively, the no significant effect threshold, defined as 30% inhibition at 1 μg/mL at the time point indicated.)”. This molecule had an IC50 in series [5] of 174 nM. Moreover, in the series with Balb/c mice, the “% inhibition of neutrophil numbers in BAL” value is on record as 51% and the “Neutrophil numbers in BAL” value is 8.0 ± 1.6 ×10^5/mL. Besides, it took 49 nM to reach half-maximal inhibition in series [4] (IC50). The molecule also came in with an IC50 on Syk of 43 nM. For the same molecule, the “β-catenin inductive effect relative to the effect produced by the Reference Compound at 1 μg/mL” value in series [2] (test concentration of 10 μg/mL, found to be negative) is reported as “less than 15%”.

Regarding `C#Cc1cc(Nc2nccc(Oc3ccc(NC(=O)Nc4cc(C(C)(C)C)nn4-c4ccc(N(C)C)cc4)c4ccccc34)n2)cc(C(=O)NCCN2CCOCC2)c1` [Example 80, 3-((4-((4-(3-(3-(tert-Butyl)-1-(4-(dimethylamino)phenyl)-1H-pyrazol-5-yl)ureido)naphthalen-1-yl)oxy)pyrimidin-2-yl)amino)-5-ethynyl-N-(2-morpholinoethyl)-benzamide], the values for the IC50 (in series [5]; at GSK 3α [9]) were 437 nM and 12600 nM, respectively. The “Mean hepatic extraction ratio (Eh)” value in series [6] (dog hepatic microsomes) is on record as 0.91; in [6] (rat hepatic microsomes) it was 0.77; in series [7] (human hepatic microsomes, scaled from intrinsic clearance, mean of two experiments) it was 0.93; in series [8] (dog hepatocytes), 0.73; in [8] (human hepatocytes), <0.61; in series [8] (rat hepatocytes) it was <0.44. Besides, the hepatic clearance result in series [7] (conclusion from Tables 9a and 9b (hepatic microsomes and hepatocytes)) is reported as “high hepatic clearance”. Moreover, the “% β-catenin induction” value in series [2] (1 μg/mL test compound) worked out at 14%; in series [2] (5 μg/mL test compound), 8%.

The IC50 is the concentration that gives 50% inhibition.
